The term DC50 denotes the concentration giving 50% degradation. A word on the Dmax: it is the greatest extent of degradation seen.

The source of these data is patent US20230265116A1, “DEGRADATION OF (EGFR) BY CONJUGATION OF EGFR INHIBITORS WITH E3 LIGASE LIGAND AND METHODS OF USE” (BEIGENE, LTD., priority 2020, published 2023).

Each structure is given as a SMILES string. Like-named read-outs stand apart in the source and are kept apart here.

Holding throughout (assay type): cell-based
Experiment [1] has as its system EGFR Del19/T790M/C797S (BaF3-DTC cells). In words: EGFR degradation HTRF assay, BaF3-DTC cells. Conditions: 16h treatment; for DTC Dmax (%): maximum percentage of degradation; for DC50: read-out: DTC DC50. The procedure:
BaF3 WT(wild type), BaF3-LTC(L858R/T790M/C797S) and BaF3-DTC(Del19/T790M/C797S) cells are treated with compounds diluted in 0.2% DMSO cell culture medium and incubate for 16h, 37° C., 5% CO2, H1975-#36, H1975-#28, H1975-#23 and HCC827 cells are treated with compounds diluted in 0.2% DMSO cell culture medium on day 2, incubate for 16h, 37° C., 5% CO2.the final concentriation of compounds in all assay is start with 10 uM, 5-fold dilution, total 8 doses were included.
After 16h treatment, add HTRF lysis buffer to each well; seal the plate and incubate 1 hour at room temperature on a plate shaker; Once the cells are lysed, 16 μL of cell lysate are transferred to a PE 384-well HTRF detection plate; 4 μL of pre-mixed HTRF antibodies are added to each well; Cover the plate with a plate sealer, spin 1000 rpm for 1 min, Incubate overnight at room temperature; Read on BMG PheraStar with HTRF protocol (337 nm-665 nm-620 nm).
The inhibition (degradation) percentage of the compound was calculated by the following equation: Inhibition percentage of Compound=100-100×(Signal-low control)/(High control-low control), wherein signal=each test compound group
High control=Cell group with added DMSO and without compound, indicating microplate readings without EGFR degradation;
Dmax is the maximum percentage of inhibition (degradation).
The IC50 (DC50) value of a compound can be obtained by fitting the following equation
Y=Bottom+(TOP−Bottom)/(1+((IC50/X)^hillslope))
Wherein, X and Y are known values, and IC50, Hillslope, Top and Bottom are the parameters obtained by fitting with software. Y is the inhibition percentage (calculated from the equation), X is the concentration of the compound; IC50 is the concentration of the compound when the 50% inhibition is reached. The smaller the IC50 value is, the stronger the inhibitory ability of the compound is. Vice versa, the higher the IC50 value is, the weaker the inhibitory ability of the compound is; Hillslope represents the slope of the fitted curve, generally around 1*; Bottom represents the minimum value of the curve obtained by data fitting, which is generally 0%±20%; Top represents the maximum value of the curve obtained by data fitting, which is generally 100%±20%. The experimental data were fitted by calculating and analyzing with Dotmatics data analysis software.
In general terms: TR-FRET usually uses a lanthanide donor and a delayed reading to cut background.

In experiment [2] the target is T1, EGFR L858R/T790M/C797S (BaF3-LTC cells) (Homo sapiens, UniProt P00533, C797S/L858R/T790M).
T1 construct: expressed in transfected cells; host or cells: BaF3
In words: EGFR degradation HTRF assay, BaF3-LTC cells. Conditions: for Dmax: maximum percentage of degradation, read-out: LTC Dmax (%). An outline of the steps:
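EGFR remaining after a 16 h, 37 °C exposure (8 doses, 5-fold steps from 10 uM final, 0.2% DMSO) was quantified by HTRF antibodies in cell lysate. Percent inhibition relative to DMSO control was fitted by four-parameter logistic to give DC50; Dmax denotes maximal degradation.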

Experiment [3] concerns EGFR Del19/T790M/C797S (H1975-clone #28). In words: EGFR degradation HTRF assay, H1975-clone #28 DTC cells. Conditions: H1975 # 28 DTC cells; for DC50: EGFR degradation, IC50 (DC50) from curve fit, read-out: DC50(nM) H1975 # 28 DTC; for Dmax (%) H1975 # 28 DTC: maximum percentage of inhibition (degradation). An outline of the steps:
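Engineered H1975 lines (lentiviral mutant EGFR, endogenous EGFR knocked out, single-clone verified); 16h compound, 37° C., 5% CO2, 0.2% DMSO; 8-point 5-fold series from 10 uM final. HTRF lysate read; % degradation vs DMSO, four-parameter fit → DC50, Dmax.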

Setting [4] is: BaF3-LTC, 16h treatment, read-out: LTC DC50.
Where [5] appears, read: BaF3-LTC cells, EGFR degradation, IC50 (DC50) from curve fit, read-out: DC50(nM) BaF3-LTC.

T1 sequence (P00533 25-1210 T790M/C797S/L858R): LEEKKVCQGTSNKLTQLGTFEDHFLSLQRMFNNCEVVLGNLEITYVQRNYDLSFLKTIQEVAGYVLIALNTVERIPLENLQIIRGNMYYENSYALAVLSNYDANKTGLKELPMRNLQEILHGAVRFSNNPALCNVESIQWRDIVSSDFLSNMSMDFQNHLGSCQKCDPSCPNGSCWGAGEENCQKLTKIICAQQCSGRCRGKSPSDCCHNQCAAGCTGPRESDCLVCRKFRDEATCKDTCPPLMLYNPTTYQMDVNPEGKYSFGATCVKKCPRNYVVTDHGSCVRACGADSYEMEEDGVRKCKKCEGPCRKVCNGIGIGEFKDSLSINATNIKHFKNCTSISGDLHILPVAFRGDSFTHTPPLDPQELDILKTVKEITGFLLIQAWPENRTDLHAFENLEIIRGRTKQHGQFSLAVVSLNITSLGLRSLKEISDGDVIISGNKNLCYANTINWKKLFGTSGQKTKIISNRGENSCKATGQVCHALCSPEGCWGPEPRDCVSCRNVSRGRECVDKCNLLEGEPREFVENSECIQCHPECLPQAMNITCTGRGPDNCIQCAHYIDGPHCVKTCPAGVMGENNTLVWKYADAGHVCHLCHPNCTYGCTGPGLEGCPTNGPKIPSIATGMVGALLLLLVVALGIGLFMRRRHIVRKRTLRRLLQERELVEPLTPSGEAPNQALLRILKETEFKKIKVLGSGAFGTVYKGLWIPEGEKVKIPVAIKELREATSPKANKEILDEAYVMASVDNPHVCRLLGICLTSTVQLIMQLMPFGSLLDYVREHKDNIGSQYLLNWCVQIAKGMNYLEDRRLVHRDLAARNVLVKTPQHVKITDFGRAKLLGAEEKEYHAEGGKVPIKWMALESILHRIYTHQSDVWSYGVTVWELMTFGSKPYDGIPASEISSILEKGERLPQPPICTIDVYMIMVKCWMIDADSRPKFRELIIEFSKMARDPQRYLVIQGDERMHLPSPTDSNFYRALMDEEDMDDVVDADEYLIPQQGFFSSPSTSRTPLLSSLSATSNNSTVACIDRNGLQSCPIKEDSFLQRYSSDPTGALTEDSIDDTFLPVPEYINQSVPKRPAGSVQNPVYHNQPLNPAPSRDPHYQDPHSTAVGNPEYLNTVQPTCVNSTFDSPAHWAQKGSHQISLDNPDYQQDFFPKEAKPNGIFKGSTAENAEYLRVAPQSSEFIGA

Regarding `CCc1cc(Nc2ncc(Br)c(Nc3ccc4nccnc4c3P(C)(C)=O)n2)c(OC)cc1N1CCC(N2CCN(CCc3ccc(C4CCC(=O)NC4=O)cc3F)CC2)CC1` (centres unmarked) [Example 6, 3-(4-(2-(4-(1-(4-((5-bromo-4-((5-(dimethylphosphoryl)quinoxalin-6-yl)amino)pyrimidin-2-yl)amino)-2-ethyl-5-methoxyphenyl)piperidin-4-yl)piperazin-1-yl)ethyl)-3-fluorophenyl)piperidine-2,6-dione], the “DTC Dmax (%)” value in experiment [1] came out at 81.2%. The DC50 was 9.2 nM in experiment [1] and 102 nM in experiment [2] (setting [4]). Further, the maximal degradation (Dmax) in experiment [2] (BaF3-LTC, 16h treatment) turned out to be 82.2%.

For `CCc1cc(Nc2ncc(Br)c(Nc3ccc4nccnc4c3P(C)(C)=O)n2)c(OC)cc1N1CCC(N2CCN(C(=O)[C@H]3CCN(c4ccc5c(c4)C(=O)N(C4CCC(=O)NC4=O)C5=O)C3)CC2)CC1` (stereo partly drawn) [Example 66, 5-((S)-3-(4-(1-(4-((5-bromo-4-((5-(dimethylphosphoryl)quinoxalin-6-yl)amino)pyrimidin-2-yl)amino)-2-ethyl-5-methoxyphenyl)piperidin-4-yl)piperazine-1-carbonyl)pyrrolidin-1-yl)-2-(2,6-dioxopiperidin-3-yl)isoindoline-1,3-dione], in experiment [1], the “DTC Dmax (%)” value stood at 92.43% and the DC50 was 4.19 nM. Further, the Dmax in experiment [2] (BaF3-LTC, 16h treatment) came out at 86.3%. Moreover, the DC50 in experiment [2] (setting [4]) stood at 11 nM.

In the case of `CCc1cc(Nc2ncc(Br)c(Nc3ccc4nccnc4c3P(C)(C)=O)n2)c(OC)cc1N1CCC(N2C[C@@H](C)N(CC3CN(c4ccc5c(c4)C(=O)N(C4CCC(=O)NC4=O)C5=O)C3)[C@@H](C)C2)CC1` (stereo partly drawn) [Example 159, 5-(3-(((2R,6S)-4-(1-(4-((5-bromo-4-((5-(dimethylphosphoryl)quinoxalin-6-yl)amino)pyrimidin-2-yl)amino)-2-ethyl-5-methoxyphenyl)piperidin-4-yl)-2,6-dimethylpiperazin-1-yl)methyl)azetidin-1-yl)-2-(2,6-dioxopiperidin-3-yl)isoindoline-1,3-dione], in experiment [1], the “DTC Dmax (%)” value was determined as 87.25% and the DC50 was 9.34 nM. Also, the Dmax in experiment [2] (BaF3-LTC, 16h treatment) was 88.3%. For the same compound, in experiment [2] (setting [4]), the DC50 was 16.1 nM.

Turning to `CCc1cc(Nc2ncc(Br)c(Nc3ccc4nccnc4c3P(C)(C)=O)n2)c(OC)cc1N1CCC(N2CCN(CCc3cc(F)c(C4CCC(=O)NC4=O)cc3Cl)CC2)CC1` (centres unmarked) [Example 165, 3-(4-(2-(4-(1-(4-((5-bromo-4-((5-(dimethylphosphoryl)quinoxalin-6-yl)amino)pyrimidin-2-yl)amino)-2-ethyl-5-methoxyphenyl)piperidin-4-yl)piperazin-1-yl)ethyl)-5-chloro-2-fluorophenyl)piperidine-2,6-dione], in experiment [1], the “DTC Dmax (%)” value worked out at 82.21% and the DC50 worked out at 18.1 nM. In addition, the Dmax in experiment [2] (BaF3-LTC, 16h treatment) was found to be 84.2%. For the same compound, the DC50 in experiment [2] (setting [4]) is 44 nM.

Take `CCc1cc(Nc2ncc(Br)c(Nc3ccc4nccnc4c3P(C)(C)=O)n2)c(OC)cc1N1CCC(N2CCN(CCc3cc(Cl)c(C4CCC(=O)NC4=O)cc3F)CC2)CC1` (centres unmarked) [Example 166, 3-(4-(2-(4-(1-(4-((5-bromo-4-((5-(dimethylphosphoryl)quinoxalin-6-yl)amino)pyrimidin-2-yl)amino)-2-ethyl-5-methoxyphenyl)piperidin-4-yl)piperazin-1-yl)ethyl)-2-chloro-5-fluorophenyl)piperidine-2,6-dione]: in experiment [1], the “DTC Dmax (%)” value was determined as 85.99% and the DC50 turned out to be 13.5 nM. Further, in experiment [2] (BaF3-LTC, 16h treatment), the Dmax was found to be 80.1%. In experiment [2] (setting [4]), the DC50 was 49.3 nM.

Regarding `CCc1ccc2c(P(C)(C)=O)c(Nc3nc(Nc4cc(CC)c(N5CCC(C6CCN(CCc7cc(F)c([C@H]8CCC(=O)NC8=O)c(F)c7)CC6)CC5)cc4OC)ncc3Br)ccc2n1` [Example 745, (R)-3-(4-(2-(1′-(4-((5-bromo-4-((5-(dimethylphosphoryl)-2-ethylquinolin-6-yl)amino)pyrimidin-2-yl)amino)-2-ethyl-5-methoxyphenyl)-[4,4′-bipiperidin]-1-yl)ethyl)-2,6-difluorophenyl)piperidine-2,6-dione], in experiment [3], the DC50 stood at 2.25 nM and the “Dmax (%) H1975 # 28 DTC” value is reported as 75.21%. Besides, the DC50 in experiment [2] (setting [5]) was 40.3 nM.

As to `CCOc1cc(N2CCC(N3CCN(C(=O)[C@H]4CN(c5cc(F)c([C@H]6CCC(=O)NC6=O)c(F)c5)CC4(C)C)CC3)CC2)c(CC)cc1Nc1ncc(Br)c(Nc2cc(F)c3nc(CC)ccc3c2P(C)(C)=O)n1` [Example 746, (R)-3-(4-((R)-4-(4-(1-(4-((5-bromo-4-((5-(dimethylphosphoryl)-2-ethyl-8-fluoroquinolin-6-yl)amino)pyrimidin-2-yl)amino)-5-ethoxy-2-ethylphenyl)piperidin-4-yl)piperazine-1-carbonyl)-3,3-dimethylpyrrolidin-1-yl)-2,6-difluorophenyl)piperidine-2,6-dione], in experiment [3], the DC50 is 11 nM and the “Dmax (%) H1975 # 28 DTC” value came out at 77.61%. The DC50 in experiment [2] (setting [5]) was determined as 30.9 nM.

With `CCOc1cc(N2CCC(N3CCN(C(=O)[C@H]4CN(c5cc(F)c([C@H]6CCC(=O)NC6=O)c(F)c5)CC4(C)C)CC3)CC2)c(CC)cc1Nc1ncc(Br)c(Nc2ccc3nc(C)ccc3c2P(C)(C)=O)n1` [Example 747, (R)-3-(4-((R)-4-(4-(1-(4-((5-bromo-4-((5-(dimethylphosphoryl)-2-methylquinolin-6-yl)amino)pyrimidin-2-yl)amino)-5-ethoxy-2-ethylphenyl)piperidin-4-yl)piperazine-1-carbonyl)-3,3-dimethylpyrrolidin-1-yl)-2,6-difluorophenyl)piperidine-2,6-dione], the figures for the DC50 in experiment [3] and in experiment [2] (setting [5]) were 2.91 nM and 19.8 nM, respectively. For the same compound, the “Dmax (%) H1975 # 28 DTC” value in experiment [3] was 76.51%.

Take `CCc1ncc2c(P(C)(C)=O)c(Nc3nc(Nc4cc(C)c(N5CCC(N6CCN(CCc7cc(F)c([C@H]8CCC(=O)NC8=O)c(F)c7)CC6)CC5)cc4OC)ncc3Br)ccc2n1` [Example 748, (R)-3-(4-(2-(4-(1-(4-((5-bromo-4-((5-(dimethylphosphoryl)-2-ethylquinazolin-6-yl)amino)pyrimidin-2-yl)amino)-5-methoxy-2-methylphenyl)piperidin-4-yl)piperazin-1-yl)ethyl)-2,6-difluorophenyl)piperidine-2,6-dione]: in experiment [3], the DC50 worked out at 0.455 nM and the “Dmax (%) H1975 # 28 DTC” value was determined as 91.78%. For the same compound, in experiment [2] (setting [5]), the DC50 was 5.75 nM.

With `CCOc1cc(N2CCC(N3CCN(CCc4cc(F)c([C@H]5CCC(=O)NC5=O)c(F)c4)CC3)CC2)c(CC)cc1Nc1nccc(Nc2ccc3nc(CC)ncc3c2P(C)(C)=O)n1` [Example 749, (R)-3-(4-(2-(4-(1-(4-((4-((5-(dimethylphosphoryl)-2-ethylquinazolin-6-yl)amino)pyrimidin-2-yl)amino)-5-ethoxy-2-ethylphenyl)piperidin-4-yl)piperazin-1-yl)ethyl)-2,6-difluorophenyl)piperidine-2,6-dione], in experiment [3], the DC50 came to 14.8 nM and the “Dmax (%) H1975 # 28 DTC” value was determined as 66.03%. For the same compound, the DC50 in experiment [2] (setting [5]) amounted to 294 nM.

On to `CCc1cc(Nc2ncc(Br)c(Nc3ccc4nccnc4c3P(C)(C)=O)n2)c(OC)cc1N1CCC(N2CCN(CCc3cc(F)c([C@H]4CCC(=O)NC4=O)c(F)c3)CC2)CC1` [Example 751, (R)-3-(4-(2-(4-(1-(4-((5-bromo-4-((5-(dimethylphosphoryl)quinoxalin-6-yl)amino)pyrimidin-2-yl)amino)-2-ethyl-5-methoxyphenyl)piperidin-4-yl)piperazin-1-yl)ethyl)-2,6-difluorophenyl)piperidine-2,6-dione], for which the results for the half-maximal degradation concentration (DC50) in experiment [3] and in experiment [2] (setting [5]) were 0.759 nM and 9.43 nM, respectively. Besides, in experiment [3], the “Dmax (%) H1975 # 28 DTC” value came out at 92.19%.
